Target: T1, CFTR (Homo sapiens, UniProt P13569, DEL508-508)
T1 construct: Primary CF airway epithelial cells were obtained from the UNC Cystic Fibrosis Tissue Procurement and Cell Culture Core; host or cells: primary CF airway epithelial cells, differentiated at the air-liquid interface
Experiment: Equivalent current assay in primary CF airway epithelial cells (NAUC, combination with 1st site corrector FDL169 or VX-809)
Type: cell-based
Settings: 37° C., 24 h

[1] = test compound 3 μM in combination with 1st site corrector VX-809 (3 μM)
[2] = test compound 10 μM in combination with 1st site corrector VX-809 (3 μM)
[3] = test compound 1 μM in combination with 1st site corrector FDL169 (3 μM)
[4] = test compound 3 μM in combination with 1st site corrector FDL169 (3 μM)
[5] = test compound 10 μM in combination with 1st site corrector FDL169 (3 μM)
[6] = test compound 1 μM in combination with 1st site corrector VX-809 (3 μM)

T1 sequence (P13569 with tags, fused parts or gaps DEL508-508): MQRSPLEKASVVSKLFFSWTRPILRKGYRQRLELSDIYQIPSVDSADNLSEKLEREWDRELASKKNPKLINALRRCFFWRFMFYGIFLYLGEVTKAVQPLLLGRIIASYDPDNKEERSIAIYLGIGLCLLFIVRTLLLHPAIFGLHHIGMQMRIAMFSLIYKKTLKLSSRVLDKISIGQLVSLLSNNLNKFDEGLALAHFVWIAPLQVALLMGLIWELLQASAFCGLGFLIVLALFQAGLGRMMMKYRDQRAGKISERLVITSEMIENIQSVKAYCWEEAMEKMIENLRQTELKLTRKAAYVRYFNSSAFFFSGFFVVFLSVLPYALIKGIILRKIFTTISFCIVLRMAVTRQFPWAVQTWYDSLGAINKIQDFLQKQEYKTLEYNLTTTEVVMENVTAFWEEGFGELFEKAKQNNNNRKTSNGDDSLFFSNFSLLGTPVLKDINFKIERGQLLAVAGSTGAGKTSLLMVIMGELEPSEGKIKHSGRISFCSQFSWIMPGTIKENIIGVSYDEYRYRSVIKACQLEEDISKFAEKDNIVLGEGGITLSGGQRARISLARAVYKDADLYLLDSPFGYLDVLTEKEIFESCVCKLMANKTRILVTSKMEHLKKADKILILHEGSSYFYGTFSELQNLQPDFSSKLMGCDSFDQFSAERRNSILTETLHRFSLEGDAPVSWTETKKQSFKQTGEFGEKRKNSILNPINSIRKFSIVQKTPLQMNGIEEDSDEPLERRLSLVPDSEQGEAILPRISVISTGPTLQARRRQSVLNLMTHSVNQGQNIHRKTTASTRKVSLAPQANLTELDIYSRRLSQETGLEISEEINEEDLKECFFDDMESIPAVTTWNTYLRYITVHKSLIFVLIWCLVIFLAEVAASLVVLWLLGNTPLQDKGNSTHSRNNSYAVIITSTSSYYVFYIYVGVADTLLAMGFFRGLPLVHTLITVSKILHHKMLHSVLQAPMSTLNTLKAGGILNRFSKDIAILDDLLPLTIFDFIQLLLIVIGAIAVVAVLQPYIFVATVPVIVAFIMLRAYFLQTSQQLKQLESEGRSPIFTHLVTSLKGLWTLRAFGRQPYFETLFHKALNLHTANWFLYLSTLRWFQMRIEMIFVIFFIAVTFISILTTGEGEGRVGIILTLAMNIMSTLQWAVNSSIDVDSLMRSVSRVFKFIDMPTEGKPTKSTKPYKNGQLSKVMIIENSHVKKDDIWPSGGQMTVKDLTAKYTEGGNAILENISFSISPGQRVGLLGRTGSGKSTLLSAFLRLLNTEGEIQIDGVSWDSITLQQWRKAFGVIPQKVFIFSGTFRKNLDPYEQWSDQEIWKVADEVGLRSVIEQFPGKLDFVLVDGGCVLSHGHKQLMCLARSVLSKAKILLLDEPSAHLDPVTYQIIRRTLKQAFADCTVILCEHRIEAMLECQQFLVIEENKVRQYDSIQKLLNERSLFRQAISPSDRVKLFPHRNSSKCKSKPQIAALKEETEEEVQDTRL

SMILES | Nauc @ 3 μM [1] | Nauc @ 10 μM [2] | Nauc @ 1 μM [3] | Nauc @ 3 μM [4] | Nauc @ 10 μM [5] | Nauc @ 1 μM [6]
C[C@]1(O)CC2C(C(=O)Nc3cc(Cl)c(OC(F)F)c(Cl)c3)C(C(=O)O)C3(C(=O)Nc4c(Cl)cc(Cl)cc43)N2C1 (stereo partly shown) [Example 4] | +++ (NAUC “+++” refers to an observed NAUC>170% of positive control) | +++ (NAUC “+++” refers to an observed NAUC>170% of positive control) | – | – | – | –
O=C(Nc1cncc(C(F)(F)F)n1)C1C2CC(F)(F)CN2C2(C(=O)Nc3c(Cl)cc(Cl)cc32)C1C(=O)O (stereo not shown) [Example 23] | ++ (NAUC “++” refers to an observed NAUC 170-140% of positive control) | + (NAUC “+” refers to an observed NAUC <140% of positive control) | – | – | – | –
O=C(O)[C@H]1[C@@H](C(=O)N(CC2CC2)c2cc(Cl)cc(Cl)c2)[C@@H](C(F)(F)F)NC12C(=O)Nc1c(Cl)cc(Cl)cc12 (single isomer, unassigned) [Example 270b] | – | – | + (NAUC “+” refers to an observed NAUC <140% of positive control) | ++ (NAUC “++” refers to an observed NAUC 170-140% of positive control) | – | –
O=C(Nc1ccc2ncncc2c1)[C@H]1[C@H]2CC(F)(F)CN2[C@]2(C(=O)Nc3c(Cl)cc(Cl)cc32)[C@H]1C(=O)O [Example 140] | – | – | + (NAUC “+” refers to an observed NAUC <140% of positive control) | + (NAUC “+” refers to an observed NAUC <140% of positive control) | – | –
O=C(Nc1cncc(C(F)(F)F)n1)C1C2CCCN2C2(C(=O)Nc3c(Cl)cc(Cl)cc32)C1C(=O)O (stereo not shown) [Example 29] | ++ (NAUC “++” refers to an observed NAUC 170-140% of positive control) | +++ (NAUC “+++” refers to an observed NAUC>170% of positive control) | – | – | – | –
COc1cc(C(F)(F)F)cc(NC(=O)C2C3C[C@@](O)(C(F)(F)F)CN3C3(C(=O)Nc4c(Cl)cc(Cl)cc43)C2C(=O)O)n1 (stereo partly shown) [Example 22] | ++ (NAUC “++” refers to an observed NAUC 170-140% of positive control) | +++ (NAUC “+++” refers to an observed NAUC>170% of positive control) | – | – | – | –
O=C(Nc1cc(C(F)(F)F)cc(C(F)(F)F)n1)C1C2CC3(CC3)CN2C2(C(=O)Nc3c(Cl)cc(Cl)cc32)C1C(=O)O (stereo not shown) [Example 1] | +++ (NAUC “+++” refers to an observed NAUC>170% of positive control) | +++ (NAUC “+++” refers to an observed NAUC>170% of positive control) | – | – | – | –
O=C(O)[C@H]1[C@@H](C(=O)N(CC2CC2)c2cc(Cl)cc(Cl)c2)[C@H]2CC(F)(F)CN2[C@]12C(=O)N(C1CC1)c1c(Cl)cc(Cl)cc12 [Example 208, (1′R,2′S,3R,7a′R)-5,7-dichloro-1-cyclopropyl-1′-((cyclopropylmethyl)(3,5-dichlorophenyl)carbamoyl)-6′,6′-difluoro-2-oxo-1′,2′,5′,6′,7′,7a′-hexahydrospiro[indoline-3.3′-pyrrolizine]-2′-carboxylic acid] | – | – | ++ (NAUC “++” refers to an observed NAUC 170-140% of positive control) | ++ (NAUC “++” refers to an observed NAUC 170-140% of positive control) | + (NAUC “+” refers to an observed NAUC <140% of positive control) | –
O=C(O)[C@H]1[C@@H](C(=O)N(CC2CC2)c2cc(Cl)cc(Cl)c2)[C@H]2CCCN2C12C(=O)Nc1c(Cl)cc(Cl)cc12 (single isomer, unassigned) [Example 83b] | – | – | +++ (NAUC “+++” refers to an observed NAUC>170% of positive control) | +++ (NAUC “+++” refers to an observed NAUC>170% of positive control) | – | –
CC(C)(C)c1cccc(C(C)(C)CNC(=O)C2C3CC(F)(F)CN3C3(C(=O)Nc4c(Cl)cc(Cl)cc43)C2C(=O)O)c1 (stereo not shown) [Example 64] | – | +++ (NAUC “+++” refers to an observed NAUC>170% of positive control) | – | – | – | –
O=C(O)[C@H]1[C@@H](C(=O)N(CCO)c2cc(Cl)cc(Cl)c2)[C@H]2CC(F)(F)CN2[C@]12C(=O)Nc1c(Cl)cc(Cl)cc12 [Example 150] | – | – | + (NAUC “+” refers to an observed NAUC <140% of positive control) | +++ (NAUC “+++” refers to an observed NAUC>170% of positive control) | – | –
CC(C)(C)C(C)(C)CN(C(=O)[C@H]1[C@H]2CC(F)(F)CN2[C@]2(C(=O)Nc3c(Cl)cc(Cl)cc32)[C@H]1C(=O)O)c1cc(Cl)cc(Cl)c1 [Example 185] | – | – | +++ (NAUC “+++” refers to an observed NAUC>170% of positive control) | +++ (NAUC “+++” refers to an observed NAUC>170% of positive control) | + (NAUC “+” refers to an observed NAUC <140% of positive control) | –
Cc1ccccc1CCNC(=O)C1C2CC(F)(F)CN2C2(C(=O)Nc3c(Cl)cc(Cl)cc32)C1C(=O)O (stereo not shown) [Example 47] | ++ (NAUC “++” refers to an observed NAUC 170-140% of positive control) | +++ (NAUC “+++” refers to an observed NAUC>170% of positive control) | – | – | – | –
O=C(Nc1cncc(C(F)(F)F)n1)C1C2C[C@H](C(F)(F)F)CN2C2(C(=O)Nc3c(Cl)cc(Cl)cc32)C1C(=O)O (stereo partly shown) [Example 18] | + (NAUC “+” refers to an observed NAUC <140% of positive control) | +++ (NAUC “+++” refers to an observed NAUC>170% of positive control) | – | – | – | –
COc1cc(C(F)(F)F)cc(NC(=O)C2C3C[C@](C)(O)CN3C3(C(=O)Nc4c(Cl)cc(Cl)cc43)C2C(=O)O)n1 (stereo partly shown) [Example 6] | +++ (NAUC “+++” refers to an observed NAUC>170% of positive control) | +++ (NAUC “+++” refers to an observed NAUC>170% of positive control) | – | – | – | –
CON(C)C(=O)[C@H]1[C@@H](C(=O)Nc2cc(Cl)cc(Cl)c2)[C@H]2CC(F)(F)CN2[C@]12C(=O)Nc1c(Cl)cc(Cl)cc12 [Example 227, (1′R,2′S,3R,7a′R)-5,7-dichloro-N1′-(3,5-dichlorophenyl)-6′,6′-difluoro-N2′-methoxy-N2′-methyl-2-oxo-1′,2′,5′,6′,7′,7a′-hexahydrospiro [indoline-3,3′-pyrrolizine]-1′,2′-dicarboxamide] | ++ (NAUC “++” refers to an observed NAUC 170-140% of positive control) | ++ (NAUC “++” refers to an observed NAUC 170-140% of positive control) | – | – | – | + (NAUC “+” refers to an observed NAUC <140% of positive control)
CC(C)(C)c1cccc(C(C)(C)CNC(=O)C2C3CC(F)(F)CN3C3(C(=O)Nc4c(Cl)cc(Cl)cc43)C2C(=O)O)c1 (single isomer, unassigned) [Example 288a, 1′-((2-(3-(tert-butyl)phenyl)-2-methylpropyl)carbamoyl)-5,7-dichloro-6′,6′-difluoro-2-oxo-1′,2′,5′,6′,7′,7a′-hexahydrospiro[indoline-3,3′-pyrrolizine]-2′-carboxylic acid] | +++ (NAUC “+++” refers to an observed NAUC>170% of positive control) | +++ (NAUC “+++” refers to an observed NAUC>170% of positive control) | – | – | – | +++ (NAUC “+++” refers to an observed NAUC>170% of positive control)
COc1cc(C(F)(F)F)cc(NC(=O)C2C3CC(F)(F)CN3C3(C(=O)Nc4c(Cl)cc(Cl)cc43)C2C(=O)O)n1 (single isomer, unassigned) [Example 80.7b.1, 5,7-dichloro-6′,6′-difluoro-1′-((6-methoxy-4-(trifluoromethyl)pyridin-2-yl)carbamoyl)-2-oxo-1′,2′,5′,6′,7′,7a′-hexahydrospiro[indoline-3,3′-pyrrolizine]-2′-carboxylic acid] | – | + (NAUC “+” refers to an observed NAUC <140% of positive control) | – | – | – | –
CC(=O)N1C(COCc2ccccc2)C(C(=O)Nc2cc(Cl)cc(Cl)c2)C(C(=O)O)C12C(=O)Nc1c(Cl)cc(Cl)cc12 (stereo not shown) [Example 36] | + (NAUC “+” refers to an observed NAUC <140% of positive control) | +++ (NAUC “+++” refers to an observed NAUC>170% of positive control) | – | – | – | –
Cn1nc(NC(=O)[C@H]2[C@H]3CC(F)(F)CN3[C@]3(C(=O)Nc4c(Cl)cc(Cl)cc43)[C@H]2C(=O)O)c2cccnc21 [Example 123] | + (NAUC “+” refers to an observed NAUC <140% of positive control) | – | – | – | – | + (NAUC “+” refers to an observed NAUC <140% of positive control)
CN(C(=O)[C@H]1[C@H]2CC(F)(F)CN2[C@]2(C(=O)Nc3c(Cl)cc(Cl)cc32)[C@H]1C(=O)O)c1cc(Cl)cc(Cl)c1 [Example 169] | – | – | ++ (NAUC “++” refers to an observed NAUC 170-140% of positive control) | +++ (NAUC “+++” refers to an observed NAUC>170% of positive control) | +++ (NAUC “+++” refers to an observed NAUC>170% of positive control) | –
O=C(Nc1cc(Cl)cc(Cl)c1)C1C(C(F)(F)c2cccc(C(F)(F)F)c2)NC2(C(=O)Nc3c(Cl)cc(Cl)cc32)C1C(=O)O (stereo not shown) [Example 70.b] | – | + (NAUC “+” refers to an observed NAUC <140% of positive control) | – | – | – | –
CN(C(=O)[C@H]1[C@H]2CC(F)(F)CN2[C@]2(C(=O)Nc3c(Cl)cc(Cl)cc32)[C@H]1C(=O)O)c1cccc(C(F)(F)F)n1 [Example 114] | ++ (NAUC “++” refers to an observed NAUC 170-140% of positive control) | +++ (NAUC “+++” refers to an observed NAUC>170% of positive control) | – | – | – | +++ (NAUC “+++” refers to an observed NAUC>170% of positive control)
CN(O)C(=O)C1C(C(=O)Nc2cc(Cl)cc(Cl)c2)C2CCCN2C12C(=O)Nc1c(Cl)cc(Cl)cc12 (single isomer, unassigned) [Example 235a, 5,7-dichloro-N1′-(3,5-dichlorophenyl)-N2′-hydroxy-N2′-methyl-2-oxo-1′,2′,5′,6′,7′,7a′-hexahydrospiro[indoline-3,3′-pyrrolizine]-1′,2′-dicarboxamide] | +++ (NAUC “+++” refers to an observed NAUC>170% of positive control) | +++ (NAUC “+++” refers to an observed NAUC>170% of positive control) | – | – | – | ++ (NAUC “++” refers to an observed NAUC 170-140% of positive control)

From patent publication US20230055237A1, “COMPOUNDS AND METHODS FOR THE TREATMENT OF CYSTIC FIBROSIS” (Flatley Discovery Lab, LLC, priority 2019, published 2023)
